# “Also recorded” adds a separate entry of the source.
# Experiments:
# Format in all cases: cell-based, human
# HFF3 cells = test: Intracellular lipid peroxidation (C11-BODIPY 581/591 fluorescence) after UVA irradiation; details: pretreated, 50 KJ/m^2 UVA, versus only UVA-treated cells
# Experimental: (§1) When cells were seeded in culture dish for overnight incubation, 200 μM of compound (I-1) was added to the cells for 2 hours before UVA irradiation.
# (§2) When the ROS attacks the C11-BODIPY^581/591 on the cell membrane, it will emit fluorescent light (excitation light: 488 nm, scattered light: 510-665 nm).
# (§3) After treating 10 μM C11-BODIPY^581/591 for 30 minutes at 37° C., the cells were washed with HEPES buffer (4-(2-hydroxyerhyl)-piperazine-1-erhanesulfonic acid, HEPES) and were observed by using the laser scanning confocal microscope.
# [1] = system: HFF1 cells (G6PD deficient skin fibroblast); test: as above; details: pretreated, 50 KJ/m^2 UVA, versus only UVA-treated cells
# Experimental: as §1, §2, §3
# HFF-3 cells [2] = test: Intracellular ROS detection (DCF-DA fluorescence) after UVA irradiation; details: 200 μM added prior to UVA irradiation (25, 50 and 100 KJ/cm^2)
# Experimental: as §1
# (§4) Reactive oxygen species (ROS) fluorescent dye: when 10 μM of 2′,7′-dichlorodihydrofluorescindiacetate (DCF-DA) enters the cells, DCF trapped is oxidized by the ROS and emits fluorescent light (excitation light: 488 nm, scattered light: 525 nm).
# (§5) HFF-3 and HFF-1 cells were cultivated and irradiated with various dosages of UVA (25, 50 and 100 KJ/cm^2). The culture medium was then replaced with new medium and treated with 10 μM of DCF-DA probe for 30 minutes at 37° C. in the dark. Cells were detached by trypsinization, collected by centrifugation and resuspended in PBS. The intracellular ROS, as reflected by the DCF green fluorescence, were then observed using laser scanning confocal microscope.
# [3] = system: HFF-1 cells (G6PD deficient skin fibroblast); test: as above; details: 200 μM added prior to UVA irradiation (25, 50 and 100 KJ/cm^2)
# Experimental: as §1, §4, §5
# HFF-3 cells [4] = test: Intracellular glutathione (GSH) depletion (CMF-DA fluorescence) after UVA irradiation; details: 200 μM added prior to UVA irradiation (25, 50 and 100 KJ/cm^2)
# Experimental: as §1
# (§6) Glutathione (GSH) fluorescent dye: 10 μM of 5-chloromethyl fluorescein diacetate (CMF-DA). When CMF-DA enters the cells, the trapped CMF reacts with the GSH to form a fluorescent compound which to emit fluorescent light (excitation light: 492 nm, scattered light: 517 nm).
# (§7) HFF-3 and HFF-1 cells were cultivated and irradiated with various dosages of UVA (25, 50 and 100 KJ/cm^2). The culture medium was then replaced with new medium and treated with […] CMF-DA probe for 30 minutes at 37° C. in the dark. Cells were detached by trypsinization, collected by centrifugation and resuspended in PBS. The intracellular GSH contents, as reflected by the green fluorescence intensity of CMF-GSH, were then observed using laser scanning confocal microscope.
# [5] = system: HFF-1 cells (G6PD deficient skin fibroblast); test: as above; details: 200 μM added prior to UVA irradiation (25, 50 and 100 KJ/cm^2)
# Experimental: as §1, §6, §7
# HFF-3 cells [6] = test: Calcium detection of cytoplasm and mitochondria (Fluo-4 / Rhod-2) after UVA irradiation; details: 200 μM added prior to UVA (50 KJ/cm^2)
# Experimental: as §1
# (§8) Calcium mobilization detection dye: 1.5 μM of RHOD-2/AM (rhod-2) is a cell-permeable fluorescent probe for measuring calcium (Ca^2+) in mitochondria (excitation light: 543 nm, scattered light: 581 nm), and 2 μM of FLUO-4/AM (fluo-4) is a cell-permeable fluorescent probe for measuring calcium (Ca^2+) in cytoplasm (excitation light: 488 nm, scattered light: 516 nm).
# (§9) HFF-3 and HFF-1 cells were cultivated and irradiated with UVA (50KJ/cm^2). The culture medium was then replaced with new medium and treated with 2 μM Flou-4 and 1.5 μM of Rhod-2 (for the detection of mitochondrial calcium) for 30 minutes at 37° C. in the dark. Rhod-2 is a cationic rhodamine-based indicator probe and it can accumulate preferentially in potential-driven uptake in mitochondria. The resting mitochondrial calcium concentration is generally in the range of 100-150 nM. At this level of calcium, the brownish red fluorescence of Rhod-2 is minimal. However, when large excess of calcium ions are uptaken by the mitochondria, concentration-dependent increases in the intensities of Rhod-2 fluorescence will occur. The phenomenon is a testimony of mitochondrial calcium overload.
# [7] = system: HFF-1 cells (G6PD deficient skin fibroblast); test: as above; details: 200 μM added prior to UVA (50 KJ/cm^2)
# Experimental: as §1, §8, §9
# HFF-3 cells [8] = test: TUNEL analysis of apoptotic cell death after UVA irradiation; details: 200 μM added prior to UVA (50 KJ/cm^2), UVA alone ca 40%
# Experimental: as §1
# (§10) Apoptotic cell death was assayed by using an Apo-BrdU in situ DNA fragmentation assay kit. This kit measures the fragmented DNA of apoptotic cells by catalytically incorporating fluorescein-12-dUTP at 3′-OH DNA ends using the terminal deoxynucleotidyl transferase enzyme. The fluorescein-12-dUTP-labeled DNA can then be visualized by confocal scanning microscope and quantified by using software.
# [9] = system: HFF-1 cells (G6PD deficient skin fibroblast); test: as above; details: 200 μM added prior to UVA (50 KJ/cm^2), UVA alone ca 80%
# Experimental: as §1, §10
smiles,measurement,setting,value
"COC(=O)c1cc(O)c(O)c(O)c1 [compound (I-1), methyl gallate]",intracellular lipid peroxidation (green fluorescent intensity of C11-BODIPY 581/591),HFF3 cells,weaker than that of the only UVA-treated cells; also recorded: significant decline of green fluorescence
same,intracellular lipid peroxidation (green fluorescent intensity of C11-BODIPY 581/591),[1],weaker than that of the only UVA-treated cells; also recorded: significant decline of green fluorescence
same,production of intracellular ROS (DCF fluorescence),HFF-3 cells [2],almost completely suppressed
same,production of intracellular ROS (DCF fluorescence),[3],almost completely suppressed; also recorded: nearly complete suppression of ROS production
same,intracellular GSH depletion (green fluorescence of CMF-GSH),HFF-3 cells [4],nearly complete protection of GSH depletion; also recorded: nearly complete recovery of green fluorescence
same,intracellular GSH depletion (green fluorescence of CMF-GSH),[5],nearly complete protection of GSH depletion; also recorded: nearly complete recovery of green fluorescence
same,mitochondrial calcium overload (brownish red fluorescence of Rhod-2),HFF-3 cells [6],can prevent calcium overload in mitochondria; also recorded: could effectively be suppressed
same,mitochondrial calcium overload (brownish red fluorescence of Rhod-2),[7],drastic decrease in brownish red fluorescence intensity; also recorded: could effectively be suppressed
same,TUNEL-positive cell population,HFF-3 cells [8],8%
same,TUNEL-positive cell population,[9],18%

# Source: patent US20180042827A1, “METHOD OF PROTECTING SKIN FROM ULTRAVIOLET RADIATION” (FIC BIOTECH INC., priority 2016, published 2018)
